The structures appear in SMILES notation.

This assay concerns human embryonic stem cell derived neural stem cells (NSCs). In words: Neural stem cell proliferation assay (neurogenesis assay). In kind it is cell-based. Particulars: concentration at which 150% activity of control (100%) is reached, ATP levels (CellTiterGlo) after 4 days incubation; for EC (150% of control): Homo sapiens, Neural stem cell, 96 h. Put shortly: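 NSCs derived from human ES cells by dual SMAD inhibition, seeded on polyornithin/laminin, dosed 4 h later (11 points, 8 μM to 8 nM). After 4 days at 37° C, ATP luminescence read; response = compound/medium control ×100, EC150 = concentration giving 150% of control.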

As to `COCCN(Cc1ccccc1)C(=O)c1ccc2cncc(-c3ccc(OC)cc3)c2n1` [Example 34, N-Benzyl-N-(2-methoxyethyl)-8-(4-methoxyphenyl)-1,6-naphthyridine-2-carboxamide], the EC (150% of control) (Table 1, novel compounds) was found to be 0.21 µM.

Take `CC1(CNC(=O)c2ccc3cncc(-c4ccc(Cl)cc4)c3n2)CCC(=O)N1` (stereo not drawn) [Example 141, 8-(4-Chlorophenyl)-N-((2-methyl-5-oxopyrrolidin-2-yl)methyl)-1,6-naphthyridine-2-carboxamide]: the “EC150” value (Table 1, novel compounds) came to 0.01 µM.

Under “Table 1, novel compounds”, `NC(=O)c1ccc2cncc(-c3cc(F)c(F)c(F)c3)c2n1` [Example 84, 8-(3,4,5-Trifluorophenyl)-1,6-naphthyridine-2-carboxamide] showed an EC (150% of control) of 0.25 µM.

The compound `CS(=O)(=O)c1ccc(CNC(=O)c2ccc3cncc(-c4ccccc4)c3n2)cc1` [Example 195, 8-Phenyl-[1,6]naphthyridine-2-carboxylic acid 4-methanesulfonyl-benzylamide] showed an EC (150% of control) (Table 2, known compounds) of 4 µM.

In turn, `CC(C)(C)OC(=O)N1CCN(C(=O)c2ccc3cncc(-c4ccc(Cl)cc4)c3n2)CC1` [Example 58, tert-Butyl 4-(8-(4-chlorophenyl)-1,6-naphthyridine-2-carbonyl)piperazine-1-carboxylate] displayed an EC (150% of control) (Table 1, novel compounds) of 1.1 µM.

Where the note is “Table 2, known compounds”, `O=C(c1ccc2cncc(-c3ccsc3)c2n1)N1CCN(c2ccccn2)CC1` [Example 200, (4-Pyridin-2-yl-piperazin-1-yl)-(8-thiophen-3-yl-[1,6]naphthyridin-2-yl)-methanone] returned an EC (150% of control) of 0.8 µM.

Turning to `CC(NC(=O)c1ccc2cncc(-c3ccc(C(F)(F)F)cc3)c2n1)C(C)(C)O` (stereo not drawn) [Example 161, N-(3-Hydroxy-3-methylbutan-2-yl)-8-(4-(trifluoromethyl)phenyl)-1,6-naphthyridine-2-carboxamide], where the note is “Table 1, novel compounds”, the EC (150% of control) was determined as 0.06 µM.

Consider `NC(=O)c1ccc2cncc(Br)c2n1` [Example 206, 8-Bromo-1,6-naphthyridine-2-carboxamide], for which, for the setting “Table 2, known compounds”, the EC (150% of control) turned out to be 0.8 µM.

Under “Table 1, novel compounds”, `COCCNC(=O)c1ccc2cncc(-c3cccc(OC)c3)c2n1` [Example 3, N-(2-Methoxyethyl)-8-(3-methoxyphenyl)-1,6-naphthyridine-2-carboxamide] had an EC (150% of control) of 0.26 µM.

For `CS(=O)(=O)CCNC(=O)c1ccc2cncc(-c3ccc(Cl)cc3F)c2n1` [Example 139, 8-(4-Chloro-2-fluorophenyl)-N-(2-(methylsulfonyl)ethyl)-1,6-naphthyridine-2-carboxamide], the EC (150% of control) (Table 1, novel compounds) was 0.06 µM.

On to `O=C(NCc1ccncc1)c1ccc2cncc(Br)c2n1` [Example 9, 8-Bromo-[1,6]naphthyridine-2-carboxylic acid (pyridin-4-ylmethyl)-amide], for which the EC (150% of control) (Table 1, novel compounds) was 1.27 µM.

Regarding `NC(=O)c1ccc2cncc(-c3cccc(OCC(F)(F)F)c3)c2n1` [Example 166, 8-(3-(2,2,2-Trifluoroethoxyl)phenyl)-1,6-naphthyridine-2-carboxamide], under “Table 1, novel compounds”, the EC (150% of control) was 0.06 µM.

Consider `O=C(c1ccc2cncc(-c3ccc(Cl)cc3)c2n1)N1CCCCC1` [Example 56, (8-(4-Chlorophenyl)-1,6-naphthyridin-2-yl)(piperidin-1-yl)methanone], for which the EC (150% of control) (Table 1, novel compounds) amounted to 1.51 µM.

Turning to `CC1(CNC(=O)c2ccc3cncc(-c4ccc(Cl)cc4)c3n2)CCC(=O)N1` (stereo not drawn) [Example 62, 8-(4-Chlorophenyl)-N-((2-methyl-5-oxopyrrolidin-2-yl)methyl)-1,6-naphthyridine-2-carboxamide], for the setting “Table 1, novel compounds”, the EC (150% of control) worked out at 0.01 µM.

With `NC(=O)c1ccc2cncc(-c3ccccc3Cl)c2n1` [Example 168, 8-(2-Chlorophenyl)-1,6-naphthyridine-2-carboxamide], the EC (150% of control) (Table 1, novel compounds) stood at 0.15 µM.

With `CC(NC(=O)c1ccc2cncc(-c3ccc(Cl)cc3)c2n1)C(C)(C)O` (stereo not drawn) [Example 162, 8-(4-Chlorophenyl)-N-(3-hydroxy-3-methylbutan-2-yl)-1,6-naphthyridine-2-carboxamide], under “Table 1, novel compounds”, the EC (150% of control) turned out to be 0.06 µM.

For the compound `CC(C)Cc1cncc2ccc(C(N)=O)nc12` [Example 136, 8-Isobutyl-1,6-naphthyridine-2-carboxamide], for the setting “Table 1, novel compounds”, the EC (150% of control) was 0.04 µM.

On to `NC(=O)c1ccc2cncc(-c3cccc(N4CCOCC4)c3)c2n1` [Example 93, 8-(3-Morpholinophenyl)-1,6-naphthyridine-2-carboxamide], for which, for the setting “Table 1, novel compounds”, the EC (150% of control) was found to be 0.21 µM.

`NC(=O)c1ccc2cncc(C3=CCOCC3)c2n1` [Example 146, 8-(3,6-Dihydro-2H-pyran-4-yl)-1,6-naphthyridine-2-carboxamide] showed an EC (150% of control) (Table 1, novel compounds) of 0.21 µM.

`N#Cc1ccc(-c2cncc3ccc(C(N)=O)nc23)cc1` [Example 85, 8-(4-Cyanophenyl)-1,6-naphthyridine-2-carboxamide]: where the note is “Table 1, novel compounds”, the EC (150% of control) is 0.05 µM.

With `O=C(NCc1ccccc1)c1ccc2cncc(-c3ccccc3Cl)c2n1` [Example 15, N-Benzyl-8-(2-chlorophenyl)-1,6-naphthyridine-2-carboxamide], for the setting “Table 1, novel compounds”, the EC (150% of control) was 0.58 µM.

For the setting “Table 2, known compounds”, `O=C(NCc1ccc(C(F)(F)F)nc1)c1ccc2cncc(-c3ccsc3)c2n1` [Example 203, 8-Thiophen-3-yl-[1,6]naphthyridine-2-carboxylic acid (6-trifluoromethyl-pyridin-3-ylmethyl)-amide] displayed an EC (150% of control) of 1.5 µM.

`COc1ccc(-c2cncc3ccc(C(=O)N4CCN(Cc5nc(OC)cc(OC)n5)CC4)nc23)cc1` [Example 187, [4-(4,6-Dimethoxy-pyrimidin-2-ylmethyl)-piperazin-1-yl]-[8-(4-methoxy-phenyl)-[1,6]naphthyridin-2-yl]-methanone] returned an EC (150% of control) (Table 2, known compounds) of 0.71 µM.

Consider `O=C(Nc1cccnc1)c1ccc2cncc(-c3ccc(Cl)cc3)c2n1` [Example 54, 8-(4-Chlorophenyl)-N-(pyridin-3-yl)-1,6-naphthyridine-2-carboxamide], for which the EC (150% of control) (Table 1, novel compounds) was 0.8 µM.

For `CC(NC(=O)c1ccc2cncc(-c3ccccc3F)c2n1)c1ccc(S(C)(=O)=O)cc1` (stereo not drawn) [Example 108, 8-(2-Fluorophenyl)-N-(1-(4-(methylsulfonyl)phenyl)ethyl)-1,6-naphthyridine-2-carboxamide], the EC (150% of control) (Table 1, novel compounds) was found to be 0.5 µM.

In the case of `CC(C)NC(=O)c1ccc2cncc(-c3ccc(Cl)cc3)c2n1` [Example 70, 8-(4-Chlorophenyl)-N-isopropyl-1,6-naphthyridine-2-carboxamide], the EC (150% of control) (Table 1, novel compounds) was 0.6 µM.

`CC(NC(=O)c1ccc2cncc(-c3ccc(Cl)c(F)c3)c2n1)C(C)(C)O` (stereo not drawn) [Example 170, 8-(4-Chloro-3-fluorophenyl)-N-(3-hydroxy-3-methylbutan-2-yl)-1,6-naphthyridine-2-carboxamide]: the EC (150% of control) (Table 1, novel compounds) amounted to 0.25 µM.

In turn, `O=C(NCC(F)(F)F)c1ccc2cncc(-c3cc(F)ccc3F)c2n1` [Example 128, 8-(2,5-Difluorophenyl)-N-(2,2,2-trifluoroethyl)-1,6-naphthyridine-2-carboxamide] gave an EC (150% of control) (Table 1, novel compounds) of 0.13 µM.

Under “Table 1, novel compounds”, `CC(C)(C)CNC(=O)c1ccc2cncc(-c3ccc(F)cc3F)c2n1` [Example 120, 8-(2,4-Difluorophenyl)-N-neopentyl-1,6-naphthyridine-2-carboxamide] yielded an EC (150% of control) of 0.08 µM.

Compound `COc1ccc(-c2cncc3ccc(C(=O)N4CCOCC4)nc23)cc1` [Example 182, [8-(4-Methoxy-phenyl)-[1,6]naphthyridin-2-yl]-morpholin-4-yl-methanone] returned an EC (150% of control) (Table 2, known compounds) of 5.4 µM.

For the origin of these results see patent US9657014B2, “Substituted 1,6-naphthyridines” (Hoffmann-La Roche Inc., priority 2012, dated 2017).
